Experimental data from patent US20250352606A1, “Pharmaceutical Composition for Promoting Neurogenesis and Method of Utilizing Gastrodia Elata Extract or Adenosine Analog for Promoting Neurogenesis” (AXR Pharma Inc., priority 2019, published 2025).

Assays:
[1] = tested on: superoxide dismutase (SOD); test: Superoxide dismutase activity in serum and brain tissue of D-galactose-treated animals; type: in vivo, mice; settings: serum, cortex and hippocampus; galactose-induced animals
Procedure: (§1) A total of nine groups with 6 each animal experiments were conducted. The animals in groups 1-9 were: 1: blank control group, 2: D-galactose (0.2 g/kg), 3: D-galactose (0.2 g/kg)+vitamin E (100 mg/kg), 4: D-galactose (0.2 g/kg)+TM1-2 low dose (5 mg/kg), 5: D-galactose (0.2 g kg)+TM1-2 mid-dose group (20 mg/kg), 6: D-galactose (0.2 g/kg)+TM1-2 high dose group (50 mg/kg), 7: D-galactose (0.2 g/kg)+T1-11 low dose group (1 mg/Kg), 8: D-galactose (0.2 g/kg)+T1-11 high dose group (10 mg/kg), 9: T1-11 (10 mg/kg). D-galactose was treated by subcutaneous injection (0.2 g/kg body weight), and G. elata extract TM1-2, T1-11 and vitamin E were orally administrated (oral gavage). The test substances were treated once a day, continuing for 6 weeks. When administering, in addition to the blank control group, each group was continued to treat with 0.2 g/kg (body weight) D-galactose subcutaneously injected via back neck, and the blank control group was subcutaneously injected with physiological saline. The vitamin E group was used as a positive control group. After observing their behavior, the animals are intraperitoneally injected with […] 5-bromo-2′-deoxyuridine (BrdU) continuously for one week. Then the animals were sacrificed to take their brain tissue and blood. […]

[2] = tested on: glucose-6-phosphate dehydrogenase (G6PD); test: Glucose-6-phosphate dehydrogenase in serum and brain tissue of D-galactose-treated animals; type: in vivo, mice; settings: serum, cortex and hippocampus; galactose-induced animals
Procedure: as §1

[3] = tested on: glutathione peroxidase (GSH-Px); test: Glutathione peroxidase in serum and brain tissue of D-galactose-treated animals; type: in vivo, mice; settings: serum, cortex and hippocampus; galactose-induced animals
Procedure: as §1

[4] = tested on: D-galactose-induced aging mice; test: Morris water maze test in D-galactose-induced aging mice; type: in vivo; settings: D-galactose 0.2 g/kg s.c.; test substance oral gavage once a day for 6 weeks
Procedure: (§2) A total of nine groups with 6 each animal experiments were conducted. The animals in groups 1-9 were: 1: blank control group, 2: D-galactose (0.2 g/kg), 3: D-galactose (0.2 g/kg)+vitamin E (100 mg/kg), 4: D-galactose (0.2 g/kg)+TM1-2 low dose (5 mg/kg), 5: D-galactose (0.2 g kg)+TM1-2 mid-dose group (20 mg/kg), 6: D-galactose (0.2 g/kg)+TM1-2 high dose group (50 mg/kg), 7: D-galactose (0.2 g/kg)+T1-11 low dose group (1 mg/Kg), 8: D-galactose (0.2 g/kg)+T1-11 high dose group (10 mg/kg), 9: T1-11 (10 mg/kg). D-galactose was treated by subcutaneous injection (0.2 g/kg body weight), and G. elata extract TM1-2, T1-11 and vitamin E were orally administrated (oral gavage). The test substances were treated once a day, continuing for 6 weeks. When administering, in addition to the blank control group, each group was continued to treat with 0.2 g/kg (body weight) D-galactose subcutaneously injected via back neck, and the blank control group was subcutaneously injected with physiological saline. The vitamin E group was used as a positive control group.
Furthermore, the memory learning ability of mice was evaluated using the Morris water maze test (Vorhees C V, et al. (2006)) (FIG. 7A and FIG. 7B).

SH-SY5Y cells = test: SA-β-gal staining of senescence SH-SY5Y cells; type: cell-based; settings: senescence SH-SY5Y cells treated for 24 hours
Procedure: SH-SY5Y cells (purchased from Taiwan and Bioresource Collection and Research Center (BCRC), 08C0066) was cultured in DMEM containing 10% fetal bovine serum, 100 U/ml penicillin and 100 µg/ml streptomycin in a carbon dioxide incubator. When SH-SY5Y cells were grown in a 100 mm culture dish to a fullness of 80%, subculture was carried out. […] Thus, the intracellular amount of SA-β-gal in the test cells were used as an indicator of cell senescence. These senescence cells were then used to perform the following aging-related cell experiments.
The senescence SH-SY5Y cells in embodiment 3 were treated with the G. elata crude extract TM1, the G. elata extract TM1-2 and N^6-(4-hydroxybenzyl) adenosine (T1-11) for 24 hours, then fixed with 4% formaldehyde, following by staining with SA-β-gal to evaluate the cell senescence level. […] Furthermore, the mechanism of cell senescence is currently known to be driven by two independent pathways, p53-p21 pathway and p16-Rb pathway. Both p21 and p16 are cyclin-dependent kinase inhibitors (CDKI), which prevent Rb from being phosphorylated so as to inhibit Rb. Consequently, the activity of E2F transcription factors is inhibited and the cell cycle is therefore blocked. p53, p63 and p73 can directly induce the activation of p21 protein, leading to arrest in cell cycle and cellular senescence.

[5] = tested on: lipid peroxidation (malondialdehyde, MDA); test: Lipid peroxidation in serum and brain tissue of D-galactose-treated animals; type: in vivo, mice; settings: serum, cortex and hippocampus; galactose-induced animals
Procedure: as §1

[6] = tested on: BrdU and DCX-expressing cells in the hippocampus; test: Neurogenesis markers BrdU and DCX in hippocampus of D-galactose-induced mice (immunostaining); type: in vivo
Procedure: as §2, with “The vitamin E group was used as a positive control group.” left out
After observing the behavior, the animals of Example 6 are intraperitoneally injected with […] 5-bromo-2′-deoxyuridine (BrdU) continuously for a week. […] The sections were immunohistochemically stained by first reacting with the first antibody, doublecortin (DCX) (purchased from Abcam) and then with a fluorescence-labeled secondary antibody (purchased from Jackson Labs Technologies, Inc). […]

[7] = tested on: D-galactose-induced aging mice; test: Nesting test and burrowing test in D-galactose-induced aging mice; type: in vivo; settings: D-galactose 0.2 g/kg s.c.; test substance oral gavage once a day for 6 weeks
Procedure: as §2, with “The vitamin E group was used as a positive control group.” left out
In the Nesting Test (Deacon R (2012), Deacon RM (2006)), mice were given nesting materials, and they made nests in the corners of the cage and stayed in the nest. By using the nature of mouse nesting, nest cotton swabs were given, the scores of completing nesting were calculated, and the weight of the remaining unbroken cotton was weighed to assess the degree of mouse aging (FIGS. 5A and 5B). […]

[8] = tested on: p53, p16, p21 protein expression; test: Cellular senescence related molecules (p53, p16, p21) in SH-SY5Y cells; type: cell-based
catalase (CAT) = test: Catalase activity in serum and brain tissue of D-galactose-treated animals; type: in vivo, mice; settings: serum, cortex and hippocampus; galactose-induced animals
Procedure: as §1

[9] = tested on: gamma amino butyric acid (GABA) metabolism; settings: An, et al (2003); cited from earlier work

SMILES | activity of superoxide dismutase (SOD) [1] | level of glucose-6-phosphate dehydrogenase (G6PD) reduced by galactose [2] | level of glutathione peroxidation (GSH-Px) reduced by galactose [3] | cognitive behavioral deficit incl. memory learning ability; higher dose better improvement [4] | intracellular SA-β-gal (cell senescence level) (SH-SY5Y cells) | lipid peroxidation (malondialdehyde, MDA) [5] | expression of BrdU in the hippocampus [6] | expression of DCX in the hippocampus [6] | cognitive behavioral deficit: construction of nests and burrowing [7] | p53, p16, p21 protein expression [8] | activity of catalase (CAT) (catalase (CAT)) | metabolism of GABA in gerbil hippocampus [9]
OC[C@H]1O[C@@H](n2cnc3c(NCc4ccc(O)cc4)ncnc32)[C@H](O)[C@@H]1O [T1-11, N^6-(4-hydroxybenzyl) adenosine] | significantly repaired the reduced activity | effectively reversed | effectively reversed | ameliorate cognitive behavioral deficit | significantly reduce SA-β-gal | significantly repaired | ameliorate the reduced expression | ameliorate the reduced expression | effectively ameliorate the animal cognitive behavioral deficit | inhibition of p53, p16, p21 protein expression | significantly repaired the reduced activity | –
OCc1ccc(O[C@@H]2O[C@H](CO)[C@@H](O)[C@H](O)[C@H]2O)cc1 [gastrodin] | – | – | – | – | – | – | – | – | – | – | – | alter the metabolism of gamma amino butyric acid (GABA)
